# Test results from patent US4520112A, “Assay method for organic calcium antagonist drugs and a kit for such an assay” (The Johns Hopkins University, priority 1983, dated 1985).
# Test system: calcium channel receptor (bovine cerebral cortex membranes)
# Assay: 3H-nitrendipine binding to cerebral cortex membranes (calcium channel receptor)
# Details: drug added to human plasma
row,Compound,effect on 3H-nitrendipine binding
1,"COCCOC(=O)C1=C(C)NC(C)=C(C(=O)OC(C)C)C1c1cccc([N+](=O)[O-])c1 (stereo not shown) [Nimodipine, nimodipine]",inhibition
2,COc1ccc([C@@H]2Sc3ccccc3N(CCN(C)C)C(=O)[C@@H]2OC(C)=O)cc1 [diltiazem],reversal of tiapamil induced reduction
3,CC(Cc1ccccc1)NCCC(c1ccccc1)c1ccccc1 (stereo not shown) [prenylamine],inhibition
4,COc1ccc(CCN(C)CCCC2(c3ccc(OC)c(OC)c3)S(=O)(=O)CCCS2(=O)=O)cc1OC [tiapamil],reduction

# Test system: calcium antagonist receptors
# Assay: not given
# Details: literature reports; cited from earlier work
row,Compound,effect on 3H-nitrendipine binding
1,COc1ccc([C@@H]2Sc3ccccc3N(CCN(C)C)C(=O)[C@@H]2OC(C)=O)cc1 [diltiazem],interact allosterically with the same receptor site and also reduce ^3 H-nitrendipine binding
2,COC(=O)C1=C(C)NC(C)=C(C(=O)OC)C1c1ccccc1[N+](=O)[O-] [nifedipine],compete directly
3,COc1ccc(CCN(C)CCCC(C#N)(c2ccc(OC)c(OC)c2)C(C)C)cc1OC (stereo not shown) [verapamil],interact allosterically with the same receptor site and also reduce ^3 H-nitrendipine binding
